# Reference: patent US20130324522A1, “INSECT ODORANT RECEPTOR ANTAGONISTS” (THE ROCKEFELLER UNIVERSITY, priority 2010, published 2013)
# pIC50: −log10 of the molar value. Like-named read-outs stand apart in the source and are kept apart here.
# Columns and labels:
# Assay type in all cases: cell-based
# Or47a/Or83b = target: T1, Or47a/Or83b (Drosophila melanogaster, UniProt P81921+Q9VNB5); assay: Ca2+-imaging of stable Flip-In T-Rex cell line Or47a/Or83b; settings: for inhibition at 4 µM: compound applied at 4 μM, read-out: Percent Inhibition OR47a OR83b
# T1 construct: Full-length cDNAs for mosquito (Anopheles gambiae) odorant receptor (OR1, OR2, OR7, OR8, OR28), and fly (Drosophila melanogaster) odorant receptor (Or47a, Or83b); expressed in transfected cells
# T1 sequence (P81921 1-385): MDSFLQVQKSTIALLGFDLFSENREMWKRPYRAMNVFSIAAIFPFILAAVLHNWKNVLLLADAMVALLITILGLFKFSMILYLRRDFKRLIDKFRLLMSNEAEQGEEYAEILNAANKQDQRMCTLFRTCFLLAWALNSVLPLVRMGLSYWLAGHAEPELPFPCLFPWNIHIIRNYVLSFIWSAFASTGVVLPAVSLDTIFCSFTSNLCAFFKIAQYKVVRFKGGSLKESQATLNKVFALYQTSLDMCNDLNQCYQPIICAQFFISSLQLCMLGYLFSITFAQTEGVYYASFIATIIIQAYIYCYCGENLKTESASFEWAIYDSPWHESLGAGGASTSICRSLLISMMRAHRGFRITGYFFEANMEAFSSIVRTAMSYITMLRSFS
# T1 sequence (Q9VNB5 1-486): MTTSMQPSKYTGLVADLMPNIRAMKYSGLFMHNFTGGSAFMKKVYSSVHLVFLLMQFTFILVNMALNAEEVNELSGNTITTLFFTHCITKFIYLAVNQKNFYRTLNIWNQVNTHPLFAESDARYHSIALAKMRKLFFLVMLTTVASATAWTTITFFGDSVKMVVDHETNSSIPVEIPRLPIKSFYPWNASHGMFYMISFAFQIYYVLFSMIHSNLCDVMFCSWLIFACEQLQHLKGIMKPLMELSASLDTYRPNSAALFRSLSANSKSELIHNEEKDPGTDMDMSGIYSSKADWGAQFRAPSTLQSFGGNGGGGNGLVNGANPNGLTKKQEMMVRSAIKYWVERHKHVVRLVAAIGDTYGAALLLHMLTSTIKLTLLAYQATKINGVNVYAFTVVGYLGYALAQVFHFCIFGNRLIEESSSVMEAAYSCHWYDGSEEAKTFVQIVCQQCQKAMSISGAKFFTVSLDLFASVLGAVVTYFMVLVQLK
# Method: (§1) Full-length cDNAs for mosquito (Anopheles gambiae) odorant receptor (OR1, OR2, OR7, OR8, OR28), and fly (Drosophila melanogaster) odorant receptor (Or47a, Or83b), mouse TRP channel (TRPM8), and mouse serotonin receptor (5HT3) were obtained and subcloned into mammalian expression vectors. The following mammalian expression vectors were used:
# Stable cell lines Or47a/Or83b and 5HT3 were generated from Flip-In T-Rex cells. Flip-In T-Rex-based cell lines were cultured in DMEM supplemented with these additional antibiotics: 6 μg/mL blasticidin and 100 μg/mL hygromycin.
# Cells were trypsinized and split into 35 mm dishes 1 day before transfection. Confluent cells (60-70%) in 35 mm dishes were co-transfected with 1 μg of Or47a/Or83b plasmid in pcDNA5/FRT/TO/IRES plus the pOG44 plasmid or 1 μg of 5HT3 plasmid in pcDNA5/FRT/TO plus the pOG44 plasmid using lipofectamine 2000. Co-transfection of pOG44 and pcDNA5/FRT/TO/IRES or pcDNA5/FRT/TO allows expression of Flp recombinase and integration of the pcDNA5 plasmid into the genome via the FRT site. After one day of incubation, the transfected cells were transferred into 10 cm dishes with DMEM containing antibiotics: 20 μg/mL of hygromycin and 6 μg/mL of blasticidin. The concentration of Hygromycin was increased to 100 μg/mL when the population of cells became 30-40% confluent. The cells were cultured by changing medium every two days until cell clumps appeared. The clumps were picked and transferred into 96 well plates with DMEM containing 100 μg/mL of Hygromycin and 6 μg/mL of blasticidin. The cells were grown and transferred to 24 well plates, and ligand-evoked calcium increases were tested using the Hamamatsu FDSS6000 real time fluorescence plate reader.
# (§2) Stable cell lines were cultured in 10 cm dishes, and confluent cells (70-80%) were trypsinized. 10,000 cells/20 μL were transferred into each well of 384-well plates coated with poly-D-lysine, and cultured for 2 days. For Flip-In T-Rex cells (cell lines expressing Or47a/Or83b and 5HT3), 5 μL of tetracycline (5 μg/mL) were added 1 day before the assay. 20 μL of Ca-4 dye was loaded into each well for 1.5 hr at room temperature in the dark, and the dye-loaded plates were subjected to Ca^2+-imaging using a Hamamatsu FDSS6000 real time fluorescence plate reader. Odorant solutions (9× final concentration) were prepared by dissolving 1M stock solutions into Hank's Buffered Salt Solution (HBSS), and 30 μL of odor solution was transferred to each well in 384-well plates.
# (§3) Compounds ([…] in DMSO) were stored in 384-well plates, and last two columns (32 wells total) contained only DMSO. 200 nL of small compounds were transferred into the odorant plates before the assay using the Perkin-Elmer Janus workstation. The odorant plates were spun down to remove air bubbles, and placed on the FDSS6000 plate loader, and 5 μL of odorant solution was applied to the cell plate on the FDSS6000. Ca^2+ increase was monitored with fluorescence at 525 nm by excitation at 485 nm.
# OR8/OR7 = OR8/OR7 (Anopheles gambiae, UniProt Q7PUT5+Q7QCC7); assay: Ca2+-imaging of stable HEK293T cell line OR8/OR7; settings: for inhibition at 4 µM: HEK-293T, compound applied at 4 μM, read-out: Percent Inhibition OR8 OR7
# Chain of OR8/OR7 (Q7QCC7 whole entry): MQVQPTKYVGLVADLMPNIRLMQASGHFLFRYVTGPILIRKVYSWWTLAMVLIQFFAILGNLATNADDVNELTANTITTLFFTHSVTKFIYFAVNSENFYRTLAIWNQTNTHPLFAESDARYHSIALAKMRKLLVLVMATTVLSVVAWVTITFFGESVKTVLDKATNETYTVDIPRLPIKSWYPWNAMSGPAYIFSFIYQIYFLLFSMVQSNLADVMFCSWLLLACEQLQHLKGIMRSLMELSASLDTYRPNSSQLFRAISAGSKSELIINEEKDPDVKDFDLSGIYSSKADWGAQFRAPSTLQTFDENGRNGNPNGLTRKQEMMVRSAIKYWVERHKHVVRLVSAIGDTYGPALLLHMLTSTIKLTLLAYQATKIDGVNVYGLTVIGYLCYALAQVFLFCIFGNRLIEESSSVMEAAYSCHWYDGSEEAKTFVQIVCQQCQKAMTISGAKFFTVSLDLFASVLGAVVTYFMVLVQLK
# Chain of OR8/OR7 (Q7PUT5 entry or part of it): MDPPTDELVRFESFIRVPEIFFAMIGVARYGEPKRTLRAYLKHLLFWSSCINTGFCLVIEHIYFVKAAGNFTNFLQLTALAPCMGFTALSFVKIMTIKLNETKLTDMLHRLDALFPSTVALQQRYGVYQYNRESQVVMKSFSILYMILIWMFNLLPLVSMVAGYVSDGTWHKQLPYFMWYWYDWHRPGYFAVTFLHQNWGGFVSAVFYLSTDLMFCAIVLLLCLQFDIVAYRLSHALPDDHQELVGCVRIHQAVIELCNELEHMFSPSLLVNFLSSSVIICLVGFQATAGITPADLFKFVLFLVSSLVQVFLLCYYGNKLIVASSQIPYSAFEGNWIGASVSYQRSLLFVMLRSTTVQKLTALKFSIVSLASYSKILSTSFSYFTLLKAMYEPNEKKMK
# Method: as §1
# (§4) Stable cell lines OR1/OR7, OR2/OR7, OR8/OR7, OR10/OR7, OR28/OR7 and TRPM8 were generated from HEK293T cells. HEK293T-based cell lines were cultured in DMEM supplemented with these additional antibiotics: 6 μg/mL blasticidin and 1 μg/mL puromycin, with the exception of the TRPM8 cell lines, which was cultured in DMEM supplemented with 1 μg/mL puromycin.
# (§5) Cells were trypsinized and split into 35 mm dishes one day before transfection. Confluent cells (60-70%) in 35 mm dishes were transfected with 1 μg of insect OR(X) plasmids in pME18s-bla and 1 μg of OR7-pME18s-puro using lipofectamine 2000. For Anopheles odorant receptors, two plasmids were co-transfected into HEK cells: the ligand-specific receptor (OR1, OR2, OR8, OR28) and the corresponding olfactory co-receptor: OR7. Cell lines containing TRPM8 were transfected with single plasmid.
# as §2, §3
# TRP channel (TRPM8) = target: T2, TRP channel (TRPM8) (Mus musculus, UniProt Q8R4D5); assay: Ca2+-imaging of stable HEK293T cell line TRPM8; settings: for inhibition at 4 µM: HEK-293T, compound applied at 4 μM, read-out: Percent Inhibition TRPM8
# T2 construct: Full-length cDNAs for mosquito (Anopheles gambiae) odorant receptor (OR1, OR2, OR7, OR8, OR28), and fly (Drosophila melanogaster) odorant receptor (Or47a, Or83b), mouse TRP channel (TRPM8); expressed in transfected cells
# T2 sequence (Q8R4D5 whole entry): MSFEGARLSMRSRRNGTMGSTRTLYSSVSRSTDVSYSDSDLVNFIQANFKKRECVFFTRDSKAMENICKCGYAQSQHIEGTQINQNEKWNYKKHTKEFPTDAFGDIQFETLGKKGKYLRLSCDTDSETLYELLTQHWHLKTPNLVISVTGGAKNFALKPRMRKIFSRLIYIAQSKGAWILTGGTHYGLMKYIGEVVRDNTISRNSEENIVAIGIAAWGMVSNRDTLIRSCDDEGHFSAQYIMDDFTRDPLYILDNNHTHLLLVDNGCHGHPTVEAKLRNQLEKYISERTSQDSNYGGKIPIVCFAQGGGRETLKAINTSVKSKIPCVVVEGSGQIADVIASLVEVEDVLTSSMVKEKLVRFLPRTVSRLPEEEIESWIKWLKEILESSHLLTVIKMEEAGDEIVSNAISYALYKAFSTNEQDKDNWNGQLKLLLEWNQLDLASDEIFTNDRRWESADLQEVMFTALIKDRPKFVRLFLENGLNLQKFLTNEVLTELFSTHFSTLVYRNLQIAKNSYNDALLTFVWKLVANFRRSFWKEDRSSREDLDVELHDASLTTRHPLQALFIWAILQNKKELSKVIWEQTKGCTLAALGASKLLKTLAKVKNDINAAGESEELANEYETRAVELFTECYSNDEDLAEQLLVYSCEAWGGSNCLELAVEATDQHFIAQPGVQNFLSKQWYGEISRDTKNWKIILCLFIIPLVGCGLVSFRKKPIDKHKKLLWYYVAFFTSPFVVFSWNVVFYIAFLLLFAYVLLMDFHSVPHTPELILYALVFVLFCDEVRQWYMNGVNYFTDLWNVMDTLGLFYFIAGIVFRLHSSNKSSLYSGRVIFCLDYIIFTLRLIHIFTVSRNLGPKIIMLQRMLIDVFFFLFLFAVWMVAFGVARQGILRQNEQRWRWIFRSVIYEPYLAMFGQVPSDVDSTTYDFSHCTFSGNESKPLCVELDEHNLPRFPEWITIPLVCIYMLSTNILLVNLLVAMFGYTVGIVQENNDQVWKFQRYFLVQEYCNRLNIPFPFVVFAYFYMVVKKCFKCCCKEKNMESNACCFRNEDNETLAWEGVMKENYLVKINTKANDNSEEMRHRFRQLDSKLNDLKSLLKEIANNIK
# Method: as §1, §4, §5, §2, §3
# OR28/OR7 = OR28/OR7 (Anopheles gambiae, UniProt A0A1S4GFY3+Q7QCC7); assay: Ca2+-imaging of stable HEK293T cell line OR28/OR7; settings: for inhibition at 4 µM: HEK-293T, compound applied at 4 μM, read-out: Percent Inhibition OR28 OR7
# Chain of OR28/OR7 (A0A1S4GFY3 entry or part of it): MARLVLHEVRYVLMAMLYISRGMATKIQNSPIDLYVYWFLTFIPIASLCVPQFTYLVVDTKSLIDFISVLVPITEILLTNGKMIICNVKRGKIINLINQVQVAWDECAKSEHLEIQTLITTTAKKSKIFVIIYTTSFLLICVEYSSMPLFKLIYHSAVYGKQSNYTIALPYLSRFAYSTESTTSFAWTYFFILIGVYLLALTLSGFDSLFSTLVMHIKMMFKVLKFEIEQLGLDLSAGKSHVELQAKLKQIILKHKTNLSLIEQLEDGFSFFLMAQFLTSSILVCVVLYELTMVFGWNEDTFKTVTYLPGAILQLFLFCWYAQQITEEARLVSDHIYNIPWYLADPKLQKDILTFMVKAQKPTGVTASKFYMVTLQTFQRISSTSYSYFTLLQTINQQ
# Chain of OR28/OR7 (Q7QCC7 whole entry): as the sequence (Q7QCC7 whole entry) above
# Method: as §1, §4, §5, §2, §3
# [1] = ligand pentyl acetate 30 μM, read-out: IC50 OR47a OR83b
# [2] = ligand menthol 300 μM, read-out: IC50 TRPM8
Compound,"pIC50 (Or47a/Or83b; Table B, read-out: IC50 OR47a)",inhibition at 4 µM (Or47a/Or83b) [%],inhibition at 4 µM (OR8/OR7) [%],inhibition at 4 µM (TRP channel (TRPM8)) [%],inhibition at 4 µM (OR28/OR7) [%],"pIC50 (OR28/OR7; Table B, read-out: IC50 OR28)",also measured
CCNc1nc(Cl)nc(NC(C)C)n1 [RU-T5],–,–,–,–,–,–,pIC50 (Or47a/Or83b; [1]): < 4.70; pIC50 (OR8/OR7): > 5.70; pIC50 (TRP channel (TRPM8); [2]): < 4.70; pIC50 (OR28/OR7): < 4.70
CCn1c(C)c(C(=O)CN(CC2CCCO2)C(=O)C2C[C@H]2c2ccccc2)c(C)c1C(=O)OC (stereo partly shown) [RU-0071273],< 6.00,26 to 50,26 to 50,< 25,> 75,> 7.00,–
Cc1nn(-c2ccc(Cl)cc2)c(C)c1C(=O)NCc1ccccn1 [RU-0048608],–,26 to 50,< 25,< 25,> 75,> 7.00,–
C=CCN(Cc1nccn1Cc1cccc(F)c1)C(=O)c1ccccc1F [RU-I1],–,–,–,–,–,–,"pIC50 (Or47a/Or83b; [1]): < 4.70; pIC50 (OR8/OR7; ligand 1-octen-3-ol 30 μM, read-out: IC50 OR8 OR7): 4.30 to 4.70; pIC50 (TRP channel (TRPM8); [2]): < 4.70; pIC50 (OR28/OR7; ligand acetophenone 300 μM, read-out: IC50 OR28 OR7): 4.30 to 4.70"
O=C(Cc1cccc(F)c1)N1CCOC(COCc2c(Cl)cccc2Cl)C1 (stereo not shown) [RU-0050398],–,26 to 50,< 25,< 25,> 75,6.00 to 7.00,–
COc1ccc(-n2c(Cc3ccccc3)nnc2SCCCC(=O)N2CCN(C(=O)c3ccc(C(F)(F)F)cc3)C(C)C2)cc1 (stereo not shown) [RU-0071828],–,26 to 50,< 25,< 25,> 75,> 7.00,–
Cc1ccccc1C(=O)N[C@@H]1CCCCC1NC(=O)C1CCN(C(=O)C23CC4CC(CC(C4)C2)C3)CC1 (stereo partly shown) [RU-0045351],–,26 to 50,< 25,< 25,> 75,> 7.00,–
O=C(c1ccco1)N(Cc1nccn1Cc1ccccc1Cl)CC1CC1 [RU-0047281],< 6.00,> 75,> 75,51 to 74,> 75,> 7.00,"pIC50 (OR8/OR7; Table B, read-out: IC50 OR8): < 6.00; pIC50 (TRP channel (TRPM8); Table B, read-out: IC50 TRPM8): < 6.00"
COc1ccccc1CCC(=O)N1CCC(CCC(=O)Nc2ccccc2)CC1 [RU-0032455],< 6.00,51 to 74,26 to 50,< 25,> 75,> 7.00,–
COc1cccc(NC(=O)CCC2CCN(C(=O)CSc3ccccc3)CC2)c1 [RU-0032474],< 6.00,51 to 74,< 25,< 25,51 to 74,> 7.00,–
CCOC(=O)c1c(NC(C)=O)c(-c2ccc(OC)cc2)cn1Cc1ccccc1 [RU-0077733],–,26 to 50,< 25,< 25,51 to 74,> 7.00,–
C=CCN(Cc1nccn1Cc1ccc(Cl)c(Cl)c1)C(=O)c1ccccc1F [RU-0047955],–,26 to 50,< 25,< 25,> 75,> 7.00,–
COCCCN(Cc1c(-c2ccccc2)noc1N1CCCC1)C(=O)c1ccc(F)cc1 [RU-0037386],< 6.00,51 to 74,51 to 74,< 25,> 75,> 7.00,"pIC50 (OR8/OR7; Table B, read-out: IC50 OR8): < 6.00"
CC(C)Nc1nc(Cl)nc(N(C)C(C)C)n1 [RU-T7],–,–,–,–,–,–,pIC50 (Or47a/Or83b): < 4.70; pIC50 (OR8/OR7): > 5.70; pIC50 (TRP channel (TRPM8)): < 4.70; pIC50 (OR28/OR7): < 4.70
C=CCOc1cccc(C(=O)N2CCCC(C(=O)c3ccccc3OC)C2)c1 (stereo not shown) [RU-0029409],–,51 to 74,26 to 50,26 to 50,> 75,> 7.00,–
COc1cccc(-c2nnc(SCCCC(=O)N3CCN(C(=O)CC(C)(C)C)C(C)C3)n2-c2ccc(C)cc2)c1 (stereo not shown) [RU-0071818],–,26 to 50,< 25,< 25,> 75,> 7.00,–
